The target in this experiment is PI 3-kinase delta (Homo sapiens (Human), UniProt O00329). Briefly: Cellular p-Akt (S473) SureFire assay, Rat-1_PI3Kdelta cells (Assay J). It counts as cell-based. The note with it: p-AKT (Ser473) in Rat-1 cells expressing myr-HA-hp110 delta, 1 h compound; read-out: Assay J PI3Kδ IC50. The source says: Cellular Assays for PI 3-Kinase Alpha (H), Beta (I) and Delta (J)
AlphaScreen (Amplified Luminescent Proximity Homogeneous Assay, ALPHA, Perkin Elmer) is a non-radioactive bead-based proximity assay technology to study biomolecular interactions in a homogenous microtiter plate format. The brand name SureFire denotes AlphaScreen assays that are adapted to quantify the phosphorylation of endogenous cellular proteins in cell lysates, by using matched antibody pairs, which consist of an anti-phospho-kinase and an anti-kinase antibody. The assay allows characterization of kinase signaling in cells as well as measurement of kinase inhibitor effects.
Rat-1 cell lines stably overexpressing activated PI 3-kinase class I isoforms Rat-1 pBABEpuro Myr-HA-hp110 delta clone 5 (Rat-1_PI3Kdelta) and Rat-1 pBABEpuro Myr-HA-hp110 alpha clone 6 (Rat-1_PI3Kalpha) and Rat-1 pBABEpuro Myr-HA-hp110 beta (Rat-1_PI3beta) were cultivated in complete growth medium (DMEM high glucose, 10% (v/v) fetal bovine serum, 1% (v/v) MEM NEAA, 10 mM HEPES, 2 mM L-glutamine, puromycin (10 μg/mL for Rat-1_PI3Kdelta and Rat-1_PI3Kalpha, 4 ug/mL for Rat-1_PI3beta), 1% (v/v) Pen/Strep) to 90% confluency at 37° C./5% CO2/90% humidity in a humidified CO2 incubator and were split twice a week. The following materials were used for p-AKT(5473) detection in Rat-1 cell lysates: Dulbecco's modified Eagle's medium (DMEM) high glucose (Gibco Invitrogen, Basel, Switzerland, Cat. No. 41965), heat inactivated fetal bovine serum, qualified (HI FBS; Gibco Invitrogen, Basel, Switzerland, Lot. No. 16140), MEM non essential amino acids (NEAA; Gibco Invitrogen, Basel, Switzerland, Cat. No. 11140), HEPES (Gibco Invitrogen, Basel, Switzerland, Cat. No. 15630), penicillin/streptomycin (Pen/Strep, 100×; Gibco Invitrogen, Basel, Switzerland, Cat. No. 15140-122), L-glutamine (Gibco Invitrogen, Basel, Switzerland, Cat. No. 25030), puromycin (Sigma Aldrich, Buchs, Switzerland, Cat. No. P9620), DMSO (MERCK, Dietikon, Switzerland, Cat. No. 8.02912.2500), H2O, MilliQ-H2O unless otherwise stated (MILLIPORE QGARDOOR1, Millipore, Zug, Switzerland), bovine serum albumine (BSA; Sigma Aldrich, Buchs, Switzerland Cat. No. A8412), SureFire p-Akt 1/2 (Ser473) Assay Kit (Perkin Elmer, Schwerzenbach, Switzerland, Cat. No. TGRAS50K).
The p-Akt (S473) SureFire assay measures the phosphorylation of endogenous cellular Akt 1/2 at Ser473 in cell lysates. Using Rat-1 cells stably expressing myr-HA-tagged versions of the human PI3Kdelta, PI3Kalpha, or PI3Kbeta p110 catalytic subunit isoforms, the assay was developed as a two-plate protocol in a 384-well format.
For compound testing, the cells were seeded at a density of 4000 (Rat-1_PI3Kdelta), 7500 (Rat-1_PI3Kalpha), or 6200 (Rat-1_PI3Kbeta) cells in 20 μl complete growth medium into cell culture treated 384-well plates and were grown at 37° C./5% CO2/90% humidity for 24 h. Shortly before compound transfer, the complete medium was removed, 30 μl assay buffer (DMEM high glucose, 1×MEM NEAA, 10 mM HEPES, 2 mM L-glutamine, 0.1% (w/v) BSA) was added and 10 μl of the compound predilutions were transferred to the cells. After treatment with compound for 1 h, the cells were lysed by the addition of 20 μl lysis buffer supplemented with 0.24% (w/v) BSA. Detection of p-AKT (Ser473) was performed with the SureFire p-Akt 1/2 (Ser473) Assay Kit according to the manufacturer's instructions using 5 ul of cell lysate in a total detection volume of 12 μl.
IC50 values of the percentage inhibition of each compound at 8 concentrations (usually 10, 3.0, 1.0, 0.3, 0.1, 0.030, 0.010 and 0.003 μM) n=2 were derived by fitting a sigmoidal dose-response curve to a plot of assay readout over inhibitor concentration as described. All fits were performed with the program XLfit4 (ID Business Solutions, Guildford, UK).

Consider seven compounds from US9862711B2, “Pyrazine derivatives as phosphatidylinositol 3-kinase inhibitors” (NOVARTIS AG, priority 2014, dated 2018).

PI 3-kinase delta, sequence (O00329 whole entry): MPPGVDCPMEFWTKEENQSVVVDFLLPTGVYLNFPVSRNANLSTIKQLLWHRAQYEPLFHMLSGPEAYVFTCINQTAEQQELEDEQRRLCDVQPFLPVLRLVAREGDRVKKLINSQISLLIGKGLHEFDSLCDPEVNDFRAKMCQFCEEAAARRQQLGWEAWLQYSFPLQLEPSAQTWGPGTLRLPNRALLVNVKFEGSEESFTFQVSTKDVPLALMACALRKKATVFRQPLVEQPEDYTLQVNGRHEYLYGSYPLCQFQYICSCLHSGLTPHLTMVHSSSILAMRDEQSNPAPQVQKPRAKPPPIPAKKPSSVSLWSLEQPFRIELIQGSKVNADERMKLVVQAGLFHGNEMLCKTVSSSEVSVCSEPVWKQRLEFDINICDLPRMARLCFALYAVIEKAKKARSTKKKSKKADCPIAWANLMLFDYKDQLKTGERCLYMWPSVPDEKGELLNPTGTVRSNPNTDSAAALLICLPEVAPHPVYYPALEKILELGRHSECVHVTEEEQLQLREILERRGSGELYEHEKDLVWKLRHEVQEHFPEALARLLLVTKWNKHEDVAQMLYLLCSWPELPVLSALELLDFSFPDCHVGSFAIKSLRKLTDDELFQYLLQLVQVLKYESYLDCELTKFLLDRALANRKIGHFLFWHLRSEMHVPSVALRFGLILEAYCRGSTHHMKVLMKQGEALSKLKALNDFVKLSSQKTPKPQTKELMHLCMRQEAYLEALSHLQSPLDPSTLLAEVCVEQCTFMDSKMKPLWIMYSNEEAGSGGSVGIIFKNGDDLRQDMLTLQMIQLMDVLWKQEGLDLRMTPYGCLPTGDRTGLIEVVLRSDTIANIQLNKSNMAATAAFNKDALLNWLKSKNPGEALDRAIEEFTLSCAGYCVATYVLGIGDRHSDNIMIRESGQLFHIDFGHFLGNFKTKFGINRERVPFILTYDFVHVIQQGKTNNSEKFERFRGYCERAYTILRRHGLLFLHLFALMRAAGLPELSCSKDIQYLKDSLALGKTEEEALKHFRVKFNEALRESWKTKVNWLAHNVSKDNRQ
PI 3-kinase delta, sequence (Q63787 whole entry partner): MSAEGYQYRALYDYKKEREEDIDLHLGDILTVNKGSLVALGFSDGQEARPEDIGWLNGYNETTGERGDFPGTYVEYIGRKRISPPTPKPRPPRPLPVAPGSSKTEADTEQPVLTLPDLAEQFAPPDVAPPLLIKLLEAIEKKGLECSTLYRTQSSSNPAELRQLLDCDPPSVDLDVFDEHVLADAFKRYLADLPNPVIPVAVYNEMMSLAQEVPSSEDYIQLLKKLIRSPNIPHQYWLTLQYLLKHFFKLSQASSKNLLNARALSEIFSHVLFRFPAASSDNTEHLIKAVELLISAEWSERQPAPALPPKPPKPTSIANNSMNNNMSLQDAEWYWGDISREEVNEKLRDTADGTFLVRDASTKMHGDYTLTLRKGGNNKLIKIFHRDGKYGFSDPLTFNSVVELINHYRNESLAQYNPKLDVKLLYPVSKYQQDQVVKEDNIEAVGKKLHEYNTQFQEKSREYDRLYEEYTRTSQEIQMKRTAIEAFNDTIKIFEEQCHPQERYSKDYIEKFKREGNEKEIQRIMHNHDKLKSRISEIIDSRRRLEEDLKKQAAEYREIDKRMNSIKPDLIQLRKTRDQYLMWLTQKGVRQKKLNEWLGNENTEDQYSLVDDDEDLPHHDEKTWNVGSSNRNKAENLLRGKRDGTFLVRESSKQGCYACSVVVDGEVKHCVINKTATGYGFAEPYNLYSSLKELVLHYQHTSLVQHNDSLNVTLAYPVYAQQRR

Consider `Cc1ccc(S(=O)(=O)NCC(C)(C)O)cc1-c1cncc(-c2cn(C)nc2C)n1` [Example 2, 3-[6-(1,3-Dimethyl-1H-pyrazol-4-yl)-pyrazin-2-yl]-N-(2-hydroxy-2-methyl-propyl)-4-methyl-benzenesulfonamide], for which the half-inhibitory concentration (IC50) (commonly the concentration that inhibits the measured activity by half) is 367 nM. In the case of `Cc1ccc(S(=O)(=O)NCCC(C)(C)O)cc1-c1cncc(-c2cn(C)nc2C)n1` [Example 3, 3-[6-(1,3-Dimethyl-1H-pyrazol-4-yl)-pyrazin-2-yl]-N-(3-hydroxy-3-methyl-butyl)-4-methyl-benzenesulfonamide], the IC50 was 1370 nM. For the compound `Cc1ccc(S(=O)(=O)NCC2(C)COC2)cc1-c1cncc(-c2cn(C)nc2C)n1` [Example 4, Trans 3-[6-(1,3-Dimethyl-1H-pyrazol-4-yl)-pyrazin-2-yl]-4-methyl-N-(3-methyl-oxetan-3-ylmethyl)-benzenesulfonamide], the 50% inhibitory concentration (IC50) was determined as 285 nM. Then `Cc1ncc(-c2cncc(-c3cc(S(=O)(=O)N[C@H]4CC[C@H](O)CC4)ccc3C)n2)s1` [Example 5, Trans N-(4-Hydroxycyclohexyl)-4-methyl-3-(6-(2-methylthiazol-5-yl)pyrazin-2-yl)benzenesulfonamide], with 540 nM; and `Cc1ccc(S(=O)(=O)NCCC(C)(C)O)cc1-c1cncc(-c2cnn(CCN3CCOCC3)c2)n1` [Example 9, N-(3-Hydroxy-3-methyl-butyl)-4-methyl-3-{6-[1-(2-morpholin-4-yl-ethyl)-1H-pyrazol-4-yl]-pyrazin-2-yl}-benzenesulfonamide], with 1680 nM; and `Cc1ccc(S(=O)(=O)NCCC(C)(C)O)cc1-c1cncc(-c2cn(CCN3CCOCC3)nc2C)n1` [Example 10, N-(3-Hydroxy-3-methyl-butyl)-4-methyl-3-{6-[3-methyl-1-(2-morpholin-4-yl-ethyl)-1H-pyrazol-4-yl]-pyrazin-2-yl}-benzenesulfonamide], with 771 nM. In the case of `Cc1ccc(S(=O)(=O)N[C@H]2CC[C@H](O)CC2)cc1-c1cncc(-c2cccnc2)n1` [Example 11, Trans N-(4-Hydroxy-cyclohexyl)-4-methyl-3-(6-pyridin-3-yl-pyrazin-2-yl)-benzenesulfonamide] it was 1050 nM.
